Results published in patent publication US7273848B2, “Apolipoprotein A-I agonists and their use to treat dyslipidemic disorders” (priority 1997, dated 2007).
No end group written: not given here.

Tests used:
[1] = Circular dichroism helicity determination; assay type: physicochemical; conditions: percent helicity; for He (%) TFE: 5 μM peptide, 90% vol TFE; for He (%) free: unbound peptide 5 μM in 5 mM phosphate buffer, pH 7.4, 37° C.; for He (%) mics: peptide-micelle complexes, Ri=100, 37° C.
How it was run: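 Far-UV CD (190–260 nm) at 37° C on 5 μM peptide in 5 mM phosphate pH 7.4, free, with EPC:Chol 20:1 SUVs (Ri 30 or 50), lysophosphatidylcholine micelles (Ri 100) or 90% TFE. Spectra converted to molar ellipticity per residue; helicity from 222 nm ellipticity or CONTIN fitting to reference spectra, ±5%.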

[2] = target: T1, LCAT (purified from human plasma) (Homo sapiens, UniProt P04180); assay: LCAT activation assay; assay type: biochemical; conditions: LCAT activation as compared with native human ApoA-I (= 100%), equivalent masses
T1 construct: from tissue; host or cells: human plasma
T1 sequence (P04180 25-440): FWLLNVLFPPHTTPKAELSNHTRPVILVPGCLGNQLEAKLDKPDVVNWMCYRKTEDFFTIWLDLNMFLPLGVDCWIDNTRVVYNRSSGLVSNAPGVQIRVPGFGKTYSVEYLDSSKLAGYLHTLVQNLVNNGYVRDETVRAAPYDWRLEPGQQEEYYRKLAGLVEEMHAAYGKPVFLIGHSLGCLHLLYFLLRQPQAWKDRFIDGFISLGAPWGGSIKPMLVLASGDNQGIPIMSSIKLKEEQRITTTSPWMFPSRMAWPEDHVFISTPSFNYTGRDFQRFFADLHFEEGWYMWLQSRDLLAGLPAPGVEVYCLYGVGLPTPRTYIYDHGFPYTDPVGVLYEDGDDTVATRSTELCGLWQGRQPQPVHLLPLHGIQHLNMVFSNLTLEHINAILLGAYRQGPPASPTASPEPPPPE
How it was run: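 Activity was expressed as percentage conversion of radiolabelled cholesterol to cholesteryl ester, normalised to native ApoA-I as 100%. LCAT purified from human plasma was added to peptide-preincubated EPC or POPC/cholesterol (20:1) small unilamellar vesicles at pH 7.4. Specific activity is the peptide concentration reaching the conversion plateau at a fixed timepoint.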

Row | Sequence | He (%) TFE ([1]; 37° C.) [%] | He (%) free [1] [%] | He (%) SUVs ([1]; peptide-SUV complexes (20:1 EPC:Chol., Ri=30 and Ri=50), 37° C.) [%] | He (%) mics [1] [%] | ACTIVITY (%) LCAT [2] [%]
1 | PVLELFENLLERLLDALQKKLK [peptide 146] | 95 | 97 | 100 | 100 | 86
2 | PVLELFENLWERLLDALQKKLK [peptide 149] | 47 | 28 | – | 54 | 63
